Results reported in patent publication US20120316203A1, “Compositions and Methods for Inhibition of Cancers” (THE OHIO STATE UNIVERSITY RESEARCH FOUNDATION, priority 2009, published 2012).

What was measured:
[1] = tested on: hOSE cells, HSMC, and HAEC; assay: Cytotoxicity of DAPs to noncancerous cells (MTT); format: cell-based, human
Experimental: Cell viability was determined by a colorimetric assay using MTT. In the mitochondria of living cells, yellow MTT undergoes a reductive conversion to formazan, giving a purple color. Cells, grown to […] confluence in 75-mm flasks, were trypsinized, counted, seeded in 96-well plates with an average population of 7000 cells/well, incubated overnight, and then treated with the DAPs (H-4073, HO-3867, H4318, or HO-4200; […]) for 24 h. All experiments were done using eight replicates and repeated at least three times. Cell viability was expressed as the percentage of MIT viability of untreated cells.

A2780 cells = assay: Cell-cycle analysis by flow cytometry; format: cell-based, human; settings: 6, 12, or 24 hours, versus nontreated control
Experimental: Cells were treated with HO-3867 (10 μmol/L) for 24 hours, trypsinized, washed in PBS, and fixed in an ice-cold 75% ethanol/PBS solution. The DNA was labeled with propidium iodide. Cells were sorted by flow cytometry and cell cycle profiles were determined using ModFit LT software (Becton Dickinson).
We next examined whether the growth inhibition of A2780 cells by HO-3867 was caused by cell cycle arrest. Cells were treated with HO-3867 for 6, 12, or 24 hours; fixed; and cell cycle populations were determined by flow cytometry.

[2] = tested on: A2780 human ovarian tumor xenograft; assay: Ovarian cancer tumor xenografts in mice, tumor growth; format: in vivo, BALB/c nude mice; settings: 25, 50, and 100 ppm in feed, 5 weeks; dose-dependent, 50 and 100 ppm more effective
Experimental: Cultured A2780 cancer cells (2×10^6 cells in […] of PBS) were s.c. injected into the back of 6-week-old BALB/c nude mice from the National Cancer Institute. Five to 7 days later, when the tumors reached 3 to 5 mm in diameter, the mice were divided (n=9/group) in a manner to equalize the mean tumor diameter among the groups. The control group was given a normal diet (no treatment), whereas the experimental groups were treated using the DAP compounds mixed with the animal feed (Harlan Teklad) at three different levels (25, 50, and 100 ppm). The doses were chosen based on an initial dose-response study optimized to produce an observable effect on tumor growth. The size of the tumor was measured twice per week using a digital Vernier caliper. The tumor volume was determined from the orthogonal dimensions (d1, d2, d3) using the formula (d1×d2×d3)×π/6. Thirty five days after the beginning of HO-3867 treatment, the mice were sacrificed and the tumors were resected. The tumor tissues were then subjected to immunoblot analysis.

HSMC = assay: Intracellular ROS by DCF fluorescence, HSMC; format: cell-based, human; settings: 10 μM, 12 h
Experimental: The ROS levels in cells treated with DAPs were determined using H2DCF-DA, a membrane-permeative fluorogenic probe. The acetate and acetoxymethyl ester groups of this probe are enzymatically cleaved inside living cells. The probe can then be oxidized by intracellular oxidants (ROS) to give a product, DCF, which emits a strong, green fluorescence (λex=504 nm; λem=529 nm). The fluorescence intensity is proportional to the level of cellular oxidants. […] The cells were further incubated in the dark for 20 min and washed with protein-free medium, and then fluorescence images were immediately captured with a Nikon Eclipse TE2000-U camera system using excitation/emission at 495/520 nm. The captured images were then analyzed using MetaMorph image analysis software.

[3] = tested on: pSTAT3 (Tyr705 and Ser727) and phospho-JAK1 (Tyr1022/1023) in A2780 cells; assay: Immunoblot and immunoprecipitation of JAK/STAT3 signaling; format: cell-based, human; settings: 10 or 20 μmol/L, 24 hours
Experimental: (§1) Equal volumes of DMSO (0.1% v/v) were present in each treatment. Following treatment, the cell lysates were prepared in non-denaturing lysis buffer containing 10 mmol/L Tris-HCl (pH 7.4), 150 mmol/L NaCl, 1% Triton X-100, 1 mmol/L EDTA, 1 mmol/L EGTA, 0.3 mmol/L phenylmethyl-sulfonyl fluoride, 0.2 mmol/L sodium orthovanadate, 0.5% NP40, 1 μg/mL aprotinin, and 1 μg/mL leupetin. The lysates were centrifuged at 10,000×g for 20 minutes at 4° C. and the supernatant was separated. The protein concentration in the lysates was determined using a Pierce detergent-compatible protein assay kit. For Western blotting, 25 to 50 μg of protein lysate per sample were denatured in 2×SDS-PAGE sample buffer and subjected to SDS-PAGE on a 10% tris-glycine gel. The separated proteins were transferred to a polyvinylidene fluoride membrane and were blocked with 5% nonfat milk powder (w/v) in TBST (10 mmol/L Tris, 10 mmol/L NaCl, 0.1% Tween 20) for 1 hour at room temperature or overnight at 4° C. The membranes were then incubated with the primary antibodies. The bound antibodies were detected with horseradish peroxidase-labeled sheep anti-mouse IgG or horseradish peroxidase-labeled donkey anti-rabbit IgG using an enhanced chemiluminescence detection system (ECL Advanced kit). Protein expressions were determined using the Image Gauge v. 3.45 software.

[4] = tested on: Bcl-xL, Bcl-2, survivin, VEGF, and cyclin D1 in A2780 cells; assay: Western blot of STAT3 target proteins; format: cell-based, human; settings: 10 and 20 μmol/L, 24-hour exposure
Experimental: as §1, with “software. […]” for “software.”

Structure (SMILES): CC1(C)C=C(CN2C/C(=C\c3ccc(F)cc3)C(=O)/C(=C/c3ccc(F)cc3)C2)C(C)(C)N1O [HO-3867, 1-[(1-oxyl-2,2,5,5-tetramethyl-2,5-dihydro-1H-pyrrol-3-yl)methyl]-(3E,5E)-3,5-bis(4-fluorobenzylidene)piperidin-4-one]
- cell viability of noncancerous (healthy) human cell lines ([1]; 10 NM, 24-h incubation): significantly less toxic
- viability of hOSE cells ([1]; same dose for both compounds): very little effect
- percentages of the cell population in the G2-M and sub-G1 phases (A2780 cells): significantly higher
- tumor volume [2]: significant reduction
- amounts of ROS in HSMC compared to A2780 cells (HSMC): significantly lower amounts of ROS
- intracellular ROS generation (DCF fluorescence) in HSMC (HSMC): not significantly different from that of the untreated cells
- pSTAT3 (Tyr705 and Ser727) levels [3]: significantly decreased
- phosphor-JAK1 (Tyr1022/1023) ([3]; versus unexposed controls): substantial decrease
- Bcl-xL, Bcl-2, survivin, and VEGF levels [4]: clear reduction
- cyclin D1 level [4]: no significant change
